Data as given in patent US11479546B2, “Antimalarial hexahydropyrimidine analogues” (UCB Biopharma SRL, priority 2018, dated 2022).

Tested on: Plasmodium falciparum 3D7
Assay: P. falciparum 3D7 asexual blood stage assay, Assay Procedure Version 2 (SYBR green readout)
Assay type: cell-based
Details: Version 2 of the assay procedure (asterisk *), 72 h incubation in infected erythrocytes, 50,000 nM to 15 nM
Summary of the method: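 P. falciparum 3D7 in A+ erythrocytes (5% haematocrit, 0.5% parasitaemia) exposed 72 h at 37 °C (1% O2, 3% CO2) to 20-point 1.5-fold titrations, final 50,000–15 nM in 0.5% DMSO. SYBR green in lysis buffer overnight, fluorescence 485/528 nm; % inhibition vs mefloquine and DMSO controls, EC50 from biphasic two-site fit.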

[1] = Plasmodium falciparum, 3D7, Erythrocyte, 72 h

C[C@@]1(c2cccc(Nc3ccc(OCC(F)(F)F)nc3)c2Cl)CC(=O)N(C2CCOCC2)C(=N)N1 [Example 112, (6S)-6-(2-Chloro-3-{[6-(2,2,2-trifluoroethoxy)pyridin-3-yl]-amino}phenyl)-2-imino-6-methyl-3-(tetrahydropyran-4-yl)hexahydropyrimidin-4-one]
IC50 [1]: 0.642 µM

C[C@@H]1C[C@H](N2C(=N)N[C@](C)(c3cccc(Nc4ccc(OC(F)F)nc4)c3Cl)CC2=O)CCO1 (stereo in doubt) [Example 138, (6S)-6-(2-Chloro-3-{[6-(difluoromethoxy)pyridin-3-yl]-amino}phenyl)-2-imino-6-methyl-3-[(cis)-2-methyl-tetrahydropyran-4-yl]-hexahydropyrimidin-4-one]
IC50 [1]: 0.019 µM

C[C@@]1(c2cccc(Nc3ccnc(C(F)(F)F)c3)c2Cl)CC(=O)N([C@H]2C[C@@](C)(O)C2)C(=N)N1 [Example 131, (6S)-6-(2-Chloro-3-{[2-(trifluoromethyl)pyridin-4-yl]amino}phenyl)-3-(3-hydroxy-3-methylcyclobutyl)-2-imino-6-methylhexahydropyrimidin-4-one]
IC50 [1]: 18.3 µM

CC1(C)CC(N2C(=N)N[C@](C)(c3cccc(Nc4cnc(C(C)(C)C)cn4)c3Cl)CC2=O)CCO1 (single isomer, unassigned) [Example 149, (6S)-6-{3-[(5-tert-Butylpyrazin-2-yl)amino]-2-chlorophenyl}-3-[(4S*)-2,2-dimethyltetrahydro-pyran-4-yl]-2-imino-6-methyl-hexahydropyrimidin-4-one]
IC50 [1]: 1.38 µM

COc1ncccc1Nc1cccc([C@]2(C)CC(=O)N(C3CCOCC3)C(=N)N2)c1Cl [Example 50, (6S)-6-{2-Chloro-3-[(2-methoxypyridin-3-yl)amino]-phenyl}-2-imino-6-methyl-3-(tetrahydropyran-4-yl)-hexahydropyrimidin-4-one]
IC50 [1]: 0.373 µM

C[C@@]1(c2cccc(Nc3ccc(C(F)F)nc3)c2Cl)CC(=O)N(C2CCOCC2)C(=N)N1 [Example 81, (6S)-6-(2-Chloro-3-{[6-(difluoromethyl)pyridin-3-yl]-amino}phenyl)-2-imino-6-methyl-3-tetrahydropyran-4-yl-hexahydropyrimidin-4-one]
IC50 [1]: 0.425 µM

Cn1nnc(-c2ccc(Nc3cccc([C@]4(C)CC(=O)N(C5CCOCC5)C(=N)N4)c3Cl)cn2)n1 [Example 117, (6S)-6-(2-Chloro-3-{[6-(2-methyltetrazol-5-yl)pyridin-3-yl]amino}phenyl)-2-imino-6-methyl-3-(tetrahydropyran-4-yl)hexahydropyrimidin-4-one]
IC50 [1]: 0.707 µM

C[C@@]1(c2cccc(Nc3ccccc3OC(F)(F)F)c2Cl)CC(=O)N(C2CCOCC2)C(=N)N1 [Example 53, (6S)-6-{2-Chloro-3-[2-(trifluoromethoxy)anilino]-phenyl}-2-imino-6-methyl-3-(tetrahydropyran-4-yl)-hexahydropyrimidin-4-one]
IC50 [1]: 0.212 µM

CC1(C)CC(N2C(=N)N[C@](C)(c3cccc(Nc4ccn(C5CC5)c(=O)c4)c3Cl)CC2=O)CCO1 (single isomer, unassigned) [Example 205, (6S)-6-{2-Chloro-3-[(1-cyclo-propyl-2-oxopyridin-4-yl)-amino]phenyl}-3-[(4R*)-2,2-dimethyltetrahydropyran-4-yl]-2-imino-6-methylhexahydro-pyrimidin-4-one]
IC50 [1]: 6.21 µM

Cc1ccc(Nc2cccc([C@]3(C)CC(=O)N([C@H]4CCO[C@@H](C)C4)C(=N)N3)c2Cl)cn1 (single isomer, unassigned) [Example 136]
IC50 [1]: 0.249 µM

Cc1ccc(Nc2cccc([C@]3(C)CC(=O)N([C@@H]4C[C@H]5CC[C@@H](C4)O5)C(=N)N3)c2Cl)cn1 (mixture of isomers) [Example 157, (6S)-6-{2-Chloro-3-[(6-methyl-pyridin-3-yl)amino]phenyl}-2-imino-6-methyl-3-[(1SR,5RS)-8-oxabicyclo[3.2.1]octan-3-yl]-hexahydropyrimidin-4-one]
IC50 [1]: 3.86 µM

C[C@@H]1C[C@@H](N2C(=N)N[C@](C)(c3cccc(Nc4ccc(OC(F)F)nc4)c3Cl)CC2=O)CCO1 (single isomer, unassigned; peak 1) [Example 191, (6S)-6-(2-Chloro-3-{[6-(difluoromethoxy)pyridin-3-yl]-amino}phenyl)-2-imino-6-methyl-3-[(2R*,4S*)-2-methyl-tetrahydropyran-4-yl]-hexahydropyrimidin-4-one (Peak 1)]
IC50 [1]: 0.363 µM

C[C@@]1(c2cccc(Nc3ccc(OC(F)(F)F)nc3)c2Cl)CC(=O)N([C@H]2C[C@@](C)(O)C2)C(=N)N1 [Example 130, (6S)-6-(2-Chloro-3-{[6-(trifluoromethoxy)pyridin-3-yl]-amino}phenyl)-3-(3-hydroxy-3-methylcyclobutyl)-2-imino-6-methylhexahydropyrimidin-4-one]
IC50 [1]: 0.744 µM

CC1(C)CC(N2C(=N)N[C@](C)(c3cccc(Nc4ccc(C5CC5)nc4)c3Cl)CC2=O)CCO1 (single isomer, unassigned) [Example 147, (6S)-6-{2-Chloro-3-[(6-cyclo-propylpyridin-3-yl)amino]-phenyl}-3-[(4S*)-2,2-dimethyl-tetrahydropyran-4-yl]-2-imino-6-methylhexahydropyrimidin-4-one]
IC50: 0.287 µM

C[C@@H]1C[C@H](N2C(=N)N[C@](C)(c3cccc(Nc4ccc(C5CC5)nn4)c3Cl)CC2=O)CCO1 (relative stereo) [Example 200, (6S)-6-{2-Chloro-3-[(6-cyclo-propylpyridazin-3-yl)amino]-phenyl}-2-imino-6-methyl-3-[(2R*,4R*)-2-methyltetrahydro-pyran-4-yl]hexahydropyrimidin-4-one]
IC50 [1]: 0.045 µM

C[C@@]1(c2cccc(Nc3cnc4ccccn34)c2Cl)CC(=O)N(C2CCOCC2)C(=N)N1 [Example 185, (6S)-6-[2-Chloro-3-(imidazo-[1,2-a]pyridin-3-ylamino)-phenyl]-2-imino-6-methyl-3-(tetrahydropyran-4-yl)-hexahydropyrimidin-4-one]
IC50 [1]: 0.565 µM

Cc1nn(-c2ccccc2)c(C)c1Nc1cccc([C@]2(C)CC(=O)N(C3CCOCC3)C(=N)N2)c1Cl [Example 186, (6S)-6-{2-Chloro-3-[(3,5-dimethyl-1-phenylpyrazol-4-yl)-amino]phenyl}-2-imino-6-methyl-3-(tetrahydropyran-4-yl)hexahydropyrimidin-4-one]
IC50 [1]: 0.456 µM

C[C@@]1(c2cccc(Nc3ccn4nccc4c3)c2Cl)CC(=O)N([C@H]2C[C@@](C)(O)C2)C(=N)N1 [Example 132, (6S)-6-[2-Chloro-3-(pyrazolo-[1,5-a]pyridin-5-ylamino)-phenyl]-3-(3-hydroxy-3-methyl-cyclobutyl)-2-imino-6-methyl-hexahydropyrimidin-4-one]
IC50 [1]: 0.623 µM

CC[C@]1(O)C[C@H](N2C(=N)N[C@](C)(c3cccc(Nc4ccc(F)cc4)c3Cl)CC2=O)C1 [Example 177, (6S)-6-[2-Chloro-3-(4-fluoro-anilino)phenyl]-3-(3-ethyl-3-hydroxycyclobutyl)-2-imino-6-methylhexahydropyrimidin-4-one (trans isomer)]
IC50 [1]: 2.45 µM

C[C@@]1(c2cccc(Nc3cnc4ccccc4c3C#N)c2Cl)CC(=O)N(C2CCOCC2)C(=N)N1 [Example 89, 3-{2-Chloro-3-[(4S)-2-imino-4-methyl-6-oxo-1-(tetrahydro-pyran-4-yl)hexahydropyrimidin-4-yl]anilino}quinoline-4-carbonitrile]
IC50 [1]: 0.232 µM

C[C@H]1C[C@@H](N2C(=N)N[C@](C)(c3cccc(Nc4ccc(C5CC5)nc4)c3Cl)CC2=O)CCO1 (relative stereo) [Example 199, (6S)-6-{2-Chloro-3-[(6-cyclo-propylpyridin-3-yl)amino]-phenyl}-2-imino-6-methyl-3-[(2S*,4S*)-2-methyltetrahydro-pyran-4-yl]hexahydropyrimidin-4-one]
IC50 [1]: 0.309 µM

C[C@@]1(c2cccc(Nc3ccc(F)cc3C#N)c2Cl)CC(=O)N(C2CCOCC2)C(=N)N1 [Example 82, 2-{2-Chloro-3-[(4S)-2-imino-4-methyl-6-oxo-1-(tetrahydro-pyran-4-yl)hexahydropyrimidin-4-yl]anilino}-5-fluorobenzo-nitrile]
IC50 [1]: 0.137 µM

Cc1ccc(Nc2cccc([C@]3(C)CC(=O)N(C4CCOCC4)C(=N)N3)c2Cl)c(C#N)n1 [Example 88, 3-{2-Chloro-3-[(4S)-2-imino-4-methyl-6-oxo-1-(tetrahydro-pyran-4-yl)hexahydropyrimidin-4-yl]anilino}-6-methylpyridine-2-carbonitrile]
IC50 [1]: 0.532 µM

CC(C)(C)c1ccc(Nc2cccc([C@]3(C)CC(=O)N(C4CCOCC4)C(=N)N3)c2Cl)cc1 [Example 67, (6S)-6-[3-(4-tert-Butylanilino)-2-chlorophenyl]-2-imino-6-methyl-3-(tetrahydropyran-4-yl)hexahydropyrimidin-4-one]
IC50 [1]: 2.58 µM

C[C@@]1(c2cccc(Nc3ncccc3C#N)c2Cl)CC(=O)N(C2CCOCC2)C(=N)N1 [Example 184, 2-{2-Chloro-3-[(4S)-2-imino-4-methyl-6-oxo-1-(tetrahydro-pyran-4-yl)hexahydropyrimidin-4-yl]anilino}pyridine-3-carbo-nitrile]
IC50 [1]: 0.217 µM

CC(C)(C)c1cnc(Nc2cccc([C@]3(C)CC(=O)N(C4CCOCC4)C(=N)N3)c2Cl)cn1 [Example 107, (6S)-6-{3-[(5-tert-Butylpyrazin-2-yl)amino]-2-chlorophenyl}-2-imino-6-methyl-3-(tetrahydro-pyran-4-yl)hexahydropyrimidin-4-one]
IC50 [1]: 0.863 µM

C[C@@]1(c2cccc(Nc3ccn4ccnc4c3)c2Cl)CC(=O)N(C2CCOCC2)C(=N)N1 [Example 108, (6S)-6-[2-Chloro-3-(imidazo-[1,2-a]pyridin-7-ylamino)-phenyl]-2-imino-6-methyl-3-(tetrahydropyran-4-yl)-hexahydropyrimidin-4-one]
IC50 [1]: 2.04 µM
